From patent US11629165B2, “Molecules for targeting ribosomes and ribosome-interacting proteins, and uses thereof” (Immagina Biotechnology S.r.l., priority 2018, dated 2023) come the findings set out here.

Common to all, as to format: cell-based
The test system of assay [1] is MCF7 cells. Briefly: Polysome profiling of probe-treated cells. The following applies: MCF7, 50 μM, 10 min. The method, then:
To better understand the effect of 3Px on the global translation efficiency, we compared the polysome profiles from DMSO and probes-treated cells. By treating MCF7 cells with 50 μM 3PBis or 3PB for 10 min, we observed a 10% reduction of the polysome/80S ratio (calculated by comparing the area under the 80S peak and the combined area under the polysome peaks, FIG. 11a). This effect is independent from the UV-treatment. Incubation of 3PB and 3PBis for longer times (7 hours or 18 hours) results in a depression of the polysome/80S area ratio of >50%, meaning that treatments with 3PBis can depress translation, increasing the 80S pick and reducing heavy polyribosomes (FIG. 11b).
Cells were incubated for 5 minutes with cycloheximide 10 μg/mL at 37° C. to trap the ribosomes on the mRNAs. Cells were then washed with PBS complemented with cycloheximide (10 μg/mL) and scraped directly on the plate with 300 μL of lysis buffer (10 mM NaCl, 10 mM MgCl2, 10 mM Tris-HCl, pH 7.5, 1% Triton X-100, 1% sodium deoxycholate, […], 5 U/mL DNAse I, 200 U/mL RNase inhibitor, and 10 μg/mL cycloheximide, protease inhibitor). Nuclei and cellular debris were removed by three consecutive centrifugations (800 g, 5 min at 4° C.). […] The fraction corresponding to the 40S, 60S and 80S peaks and those corresponding to polysomes were collected monitoring the absorbance at 254 nm. […]

The subject of assay [2] is ATP-binding site of GRP78. In words: Competition with VER-155008 on probe labelling. The following applies: MCF7, VER-155008 100 μM 1 hour before probe. Here is the method: In total, 114 protein targets were identified from in-column digestion (called data set 1, n=4), 204 targets from in-gel digestion (called data set 2, n=4) and 1085 from in-bead digestion (called data set 3, n=2, FIG. 12c). The 3PB-beads pull down reflects the “double band” pattern observed with the incubation of 3PB/3PBis in the cell lysate (FIG. 12b). To increase the stringency of our in-beads digestion data set, we performed an enrichment analysis over control Peg-beads (n=2) and we identified 333 proteins setting a cut-off fold-enrichment (FC)≥1.3 between 3PB- and Peg-beads, while 166 proteins are identified with a FC≥2.5. By using the less stringent filter (FC≥1.3) and looking for proteins in common in the three data set, we identified 15 proteins as putative 3PB targets. These factors are known to be involved in tRNAs selection and ribosome elongation (eEF1A, eEF2, eEF4G), ribosome structure (RPL18), protein folding (HSP5A, HSP90AB1, PPIA), metabolism (PHGFH, ENO1, GAPDH, ALB), RNA processing (HNRNPK) and cellular structure (KRT2, KRT10, ACTB). […] After pull-down assay using avidin-magnetic beads (FIG. 12e and FIG. 13a) we observed the presence of the lower HSPA5/GRP78 band, while the upper band (although dominant in the input) was not detected. […]

In assay [3] the test system is 28S ribosomal RNA. In words: Labelling of rRNA by 3PBis, Cy3 in-gel fluorescence. The following applies: MCF7, Cy3 conjugation, total RNA agarose gel. Here is the method:
FIG. 20. 3PBis-ribosome interaction and labelling of 28S rRNA. MCF7 cells were incubated with 3PBis, fixed and conjugated with Cy3. After extraction, total RNA was run in agarose gel and stained with Syber gold or visualized by in-gel fluorescence scanning.
We investigated the possibility that 3Px molecules directly reacts in the ribosome itself. If 3Px enters the ribosome as puromycin does, it should bind only the large ribosomal subunit, and in particular the rRNA 28S that form the catalytic pocket of the ribosome.

For assay [4], the system named is MCF7 cells. Briefly: Probe labelling after puromycin/CHX treatment, CuAAC Cy3-azide, in-gel fluorescence. Particulars: MCF7, puromycin 20 and 100 μM 2 hours; 3PB 100 μM or 3PBis 50 μM, 10 min. The method, then:
Next, we asked if the labelling is sensitive on puromycin treatment (i.e. dependent on ribosome activity). To do that, we first treated MCF7 cell with puromycin followed by 10 min incubation with 3PB or 3PBis. When used in minimal amounts, puromycin can be incorporated in neosynthesized proteins^25, while high concentrations as well as long incubation times, fully block translation. We first define the concentration that allows puromycin to be incorporated in the nascent peptide chain (i.e. 20 μM), and the range of concentrations that completely depress translation in our biological model (i.e. 50 μM, 100 μM and 200 μM, FIG. 10a). We treat MCF7 cells with both 20 and 100 μM puromycin for 2 hours before adding 3PB (100 μM, 10 min) or 3PBis (50 μM, 10 min). Probe-labeled proteins were coupled to a Cy3-azide reporter tag using CuAAC chemistry, separated by SDS-PAGE and detected by in-gel fluorescence scanning. We observed about 50% reduction of the labelling at 65 kDa after puromycin treatment for both probes (FIG. 5c-d). […] To better understand if the labelling is related to the activity of the ribosomal peptidyl transferase centre (PTC), we pre-treated cells with high concentrations of CHX (350 μM) before adding puromycin (100 μM) to fully block the ribosome catalytic activity^8. […]

The subject of assay [5] is cellular proteins of HEK-293 and MCF7 cell lines. Briefly: 3Px probe protein labelling, UV irradiation, anti-puromycin immunoblot. The method, then:
For our initial analysis, we treated HEK-293 and MCF7 cell lines in complete culture medium with the 3PB probe (10 μM) for 10 min, followed by irradiation for 5 min on ice (total power: 0.75 J/cm2). We first assessed 3PB labeling of cellular proteins using SDS-PAGE analysis. […] Then, we compared the labelling activity of 3PB, 3PA and 3PBis in HEK293 and MCF7 cells, adding the probes before or after cell lysis. In the latter case, each probe is incubated for 1 h in the cytoplasmic cell extract at 4° C., followed by UV irradiation (0.75 J/cm^2) of the treated lysate. […] Therefore, both 3PB and 3PBis show additional bands with MW=˜50 kDa, when reacted in the cell lysate, with respect to the situation when probes are incubated with growing cells (FIG. 6a). […] This is presumably due to the higher hydrophobicity of the 3PBis probe and a consequent better cell membrane penetration (FIG. 7).
To test 3PN and 3PO activity, we treated MCF7 cells with different concentrations of the two drugs for 10 min, followed by UV-356 irradiation.
Reaction in cell culture: MCF7 or HEK-293 cells were grown to 80% of confluence and treated with CHX (10 μg/mL, 5 min, 37° C.) and then with the probe (10 min, 37 C). Cells were then washed with cold PBS (containing CHX 10 μg/mL), placed on ice and irradiated under a UV lamp (BLX-365, 5×8 W) at 365 nm for 5 min (0.75 J/cm^2) followed by lysis with hypotonic cytoplasmic buffer. Reaction in the cell lysate: HEK-293 or MCF7 cells were treated with CHX (10 μg/mL, 5 min). After hypotonic lysis and precipitation of nuclei and cellular debris by centrifugations at 18000 g, 4° C., 5 min, the supernatant was diluted to A260=1 a.u/μL with 10 mM NaCl, 10 mM MgCl2, 20 μg/mL cycloheximide, 10 mM Hepes, pH 7 in DEPC water, to a final volume of 150 μL. The diluted lysate was then incubated with the reactive probe for 1 hour in a 12-well plate and then UV-irradiated (BLX-365) at 365 nm for 5 min (0.75 J/cm2).
Cell lysates were prepared as described above. Proteins were separated by SDS-polyacrylamide gel electrophoresis and transferred onto PVDF membranes. […]

Assay [6] has as its system MCF7 cells. Briefly: Puromycin concentration effect on translation, puromycin immunoblot. The following applies: MCF7, 2 hours. Here is the method: FIG. 10. Effect of ribosome inhibitors on 3PB/3PBis binding. (a) Immunoblot of puromycin on total protein extracts from, MCF7 cell treated with increasing concentrations of puromycin (incubation time: 2 hours). CHX+Puro: 350 μM CHX before puromycin treatment (20, 50, 100, 200 μM). 3PBis treatment: (50 μM, 10 min); −, not treatment. (b) On the left, immunoblot with anti-puromycin antibody on total protein extracts from MCF7 cells treat with the indicated drugs. CHX, 350 μM, 5 min; Puromycin, 100 μM, 2 hours; 3PB, 50 μM, 10 min. On the right, CuAAC coupling with Biotin-azide was performed on the cell lysate before total protein extract and SDS-PAGE. The staining of the membrane was performed with Streptavidin-HRP. (c) Sketch that summarize the effect of puromycin treatment on the 3PB-3PBis labelling.
Next, we asked if the labelling is sensitive on puromycin treatment (i.e. dependent on ribosome activity). To do that, we first treated MCF7 cell with puromycin followed by 10 min incubation with 3PB or 3PBis. When used in minimal amounts, puromycin can be incorporated in neosynthesized proteins^25, while high concentrations as well as long incubation times, fully block translation. […] Probe-labeled proteins were coupled to a Cy3-azide reporter tag using CuAAC chemistry, separated by SDS-PAGE and detected by in-gel fluorescence scanning. […]

As to `C#CCOCCC(=O)NCCOCCOCCNC(=O)N[C@@H](Cc1ccc(OC)cc1)C(=O)N[C@H]1C(OC(=O)OCCC2(C)N=N2)C(n2cnc3c(N(C)C)ncnc32)O[C@@H]1COC(=O)OCCC1(C)N=N1` (some centres unmarked) [3PBis], the “reduction of the polysome/80S ratio” value in assay [1] came to 10%. Moreover, the “reduction of probe labelling by VER-155008” value in assay [2] is given as 1.2 ×. Besides, the “interaction with 28S rRNA” value in assay [3] was “directly interact with the 28S ribosomal RNA”. The “reduction of the labelling at 65 kDa after puromycin treatment” value in assay [4] is “about 50%”. For the same molecule, the protein labeling signal result in assay [5] (HEK293 and MCF7, probes added before or after cell lysis, UV 0.75 J/cm2) is on record as “concentration-dependent increases in protein labeling”. In addition, in assay [5] (depending on position of UV-active diazirine on ribose), the “functional (binding) activity” value was “possess the functional activity”.

As to `C#CCOc1cc(C2(C(F)(F)F)N=N2)ccc1C(=O)N[C@@H](Cc1ccc(OC)cc1)C(=O)N[C@H]1[C@@H](O)[C@H](n2cnc3c(N(C)C)ncnc32)O[C@@H]1CO` [3PN], the “labelling efficiency after anisomycin and arsenite pre-treatment” value in assay [5] (MCF7, FIG. 8a) is “strong reduction”.

`COc1ccc(C[C@H](N)C(=O)N[C@H]2[C@@H](O)[C@H](n3cnc4c(N(C)C)ncnc43)O[C@@H]2CO)cc1` [puromycin, Puromycin]: the “concentration that allows puromycin to be incorporated in the nascent peptide chain” value in assay [6] is 20 µM.
